Results: ChEMBL document CHEMBL1134094, “Cell permeability as a parameter for lead generation in the protein Tyrosine kinase inhibition field” (2001)

Experiments:
Caco-2 [1] = assay: Computed polar surface area (PSA) for the compound […]; assay type: functional
Caco-2 [2] = assay: Substrate affinity was determined; passive; assay type: functional, cell-based; conditions: Homo sapiens
Caco-2 [3] = assay: Cell membrane permeability for the compound determined by human Caco-2 monolayer assay (10e-5 cm/min); assay type: functional

## COc1ccc(-c2cn(Cc3ccccc3)c3ccc(O)nc23)cc1
Caco-2 [1]
  3D PSA: 45
Caco-2 [2]
  Affinity: passive
Caco-2 [3]
  Pm: 90.5 10e-5*cm/min

## Nc1ncnc2c1c(-c1ccccc1)cn2Cc1ccccc1
Caco-2 [1]
  3D PSA: 46.6

## COc1ccc(Cn2cc(-c3ccc(OC)cc3)c3c(N)ncnc32)cc1
Caco-2 [1]
  3D PSA: 69.2
Caco-2 [2]
  Affinity: passive
Caco-2 [3]
  Pm: 61.9 10e-5*cm/min

## COc1ccc(-c2cn(Cc3ccccc3)c3ncnc(N)c23)cc1
Caco-2 [1]
  3D PSA: 58.2
Caco-2 [2]
  Affinity: passive
Caco-2 [3]
  Pm: 78.2 10e-5*cm/min

## COc1ccc(Cn2cc(-c3ccc(OC)cc3)c3nc(O)ccc32)cc1
Caco-2 [1]
  3D PSA: 55.1
Caco-2 [2]
  Affinity: passive
Caco-2 [3]
  Pm: 83 10e-5*cm/min

## Oc1ccc2c(n1)c(-c1ccccc1)cn2Cc1ccccc1
Caco-2 [1]
  3D PSA: 33.4
